Laboratory results: patent US6855518B2, “Anti-listeria bacteriocin” (Rhodia Chimie, priority 2000, dated 2005)
“Also recorded” adds a separate entry of the source. Ends that are not written are not given here.

Legend:
[1] = tested on: L. inocua 8811; test: Well test of bacteriocin activity (inhibition zones on agar); assay type: cell-based; details: 50 microliters of sakacin G solution, BHI agar, overnight at 37° C.
Experimental: (§1) • Bacterial strains and culture media. Lactobacillus sakei 2512 is cultured at 30° C. in MRS medium (DIFCO Laboratories) sterilised for 12 minutes at 110° C. The indicator strains are cultured in BHI medium (brain-heart infusion; DIFCO Laboratories) at 37° C. • Test of activity. BHI medium, supplemented with 10 g/l agar, is inoculated at 1% with a preculture of the indicator strain in stationary phase before being poured into a Petri dish. 50 microliters of sakacin G solution are placed in wells formed in cooled agar with a hole punch. The bacteriocin activity manifests itself in the appearance of inhibition zones around the wells after incubation overnight at 37° C. • Protein analysis. Sakacin G is analysed by mass spectrometry using a Perkin-Elmer Sciex API 165 device equipped with an Ionspray ionisation source. After lyophilisation, the active HPLC fraction is taken up in an acetonitrile/water solution (1:1) containing 0.1% formic acid, and then injected by infusion at a rate of 5 μl/minute.
(§2) The sakacin G sensitivity of 17 bacterial strains was tested by the well test method (see Materials and Methods).

[2] = tested on: Lb. Delbrueckii DSM 20081; test: as above; assay type: cell-based
Experimental: as §1, §2

[3] = tested on: Lc. lactis ATCC11454; test: as above; assay type: cell-based; details: 50 microliters of sakacin G solution, BHI agar, overnight at 37° C.
Experimental: as §1, §2

[4] = tested on: Ln. Mesenteroides DSM 20240; test: as above; assay type: cell-based; details: 50 microliters of sakacin G solution, BHI agar, overnight at 37° C.
Experimental: as §1, §2

[5] = tested on: Ln. Mesenteroides DSM 20484; test: as above; assay type: cell-based; details: 50 microliters of sakacin G solution, BHI agar, overnight at 37° C.
Experimental: as §1, §2

[6] = tested on: Ln. Paramesenteroides DSM 20288; test: as above; assay type: cell-based; details: 50 microliters of sakacin G solution, BHI agar, overnight at 37° C.
Experimental: as §1, §2

[7] = tested on: P. acidilactici ENSAIA 583; test: as above; assay type: cell-based; details: 50 microliters of sakacin G solution, BHI agar, overnight at 37° C.
Experimental: as §1, §2

[8] = tested on: Lb. Plantarum DSM 20174; test: as above; assay type: cell-based, Lactobacillus plantarum
Experimental: as §1, §2

[9] = tested on: Lb brevis DSM 20054; test: as above; assay type: cell-based, Lactobacillus brevis
Experimental: as §1, §2

[10] = tested on: Lb. casei DSM 20011; test: as above; assay type: cell-based, Lactobacillus casei
Experimental: as §1, §2

[11] = tested on: Lb. sakei 2515; test: as above; assay type: cell-based, Lactobacillus sakei
Experimental: as §1, §2

[12] = tested on: P. cerevisiae IP 5492; test: as above; assay type: cell-based, Pediococcus cerevisiae
Experimental: as §1, §2

[13] = tested on: E. faecium ENSAIA 631; test: as above; assay type: cell-based, Enterococcus faecium
Experimental: as §1, §2

[14] = tested on: E. faecalis ENSAIA 636; test: as above; assay type: cell-based, Enterococcus faecalis; details: 50 microliters of sakacin G solution, BHI agar, overnight at 37° C.
Experimental: as §1, §2

[15] = tested on: E. faecalis IP 5430; test: as above; assay type: cell-based, Enterococcus faecalis; details: 50 microliters of sakacin G solution, BHI agar, overnight at 37° C.
Experimental: as §1, §2

[16] = tested on: E. durans ENSAIA 630; test: as above; assay type: cell-based, Enterococcus durans
Experimental: as §1, §2

[17] = tested on: L. ivanovi BUG 496; test: as above; assay type: cell-based, Listeria ivanovii
Experimental: as §1, §2

[18] = tested on: Listeria strains; test: Inhibition spectrum, for Listeria; assay type: cell-based; details: all the Listeria strains tested
Experimental: as §1, §2

[19] = tested on: Enterococcus faecalis; test: Inhibition spectrum, Enterococcus faecalis; assay type: cell-based
Experimental: as §1, §2

Substance: sakacin G: class IIa anti-Listeria bacteriocin polypeptide from Lactobacillus sakei 2512, about 3834 Da, two disulfide bridges; mature sequence SEQ ID NO: 12 (KYYGNGVSCNSHGCSVNWGQAWTCGVNHLANGGHGVC; disulfide (positions not given here))
- Radius of the inhibition halos [1]: 3 mm
- Bacteriocin activity (in words) ([2]; Lactobacillus debrueckii): inactive
- Radius of the inhibition halos ([2]; well test, 50 microliters of sakacin G solution, BHI agar, overnight at 37° C., Lb. Delbrueckii DSM 20081): 0 mm
- Radius of the inhibition halos [3]: 0 mm
- Radius of the inhibition halos [4]: 0 mm
- Radius of the inhibition halos [5]: 0 mm
- Radius of the inhibition halos [6]: 0 mm
- Radius of the inhibition halos [7]: 0 mm
- Bacteriocin activity (in words) ([8]; Lactobacillus plantarum): inactive
- Radius of the inhibition halos ([8]; well test, 50 microliters of sakacin G solution, BHI agar, overnight at 37° C., Lb. Plantarum DSM 20174): 0 mm
- Bacteriocin activity (in words) ([9]; Lactobacillus brevis): inactive
- Radius of the inhibition halos ([9]; well test, 50 microliters of sakacin G solution, BHI agar, overnight at 37° C., Lb brevis DSM 20054): 0 mm
- Bacteriocin activity (in words) ([10]; Lactobacillus casei): inactive
- Radius of the inhibition halos ([10]; well test, 50 microliters of sakacin G solution, BHI agar, overnight at 37° C., Lb. casei DSM 20011): 0 mm
- Bacteriocin activity (in words) ([11]; strains of Lactobacillus sakei other than Lactobacillus sakei 2512): especially effective
- Radius of the inhibition halos ([11]; well test, 50 microliters of sakacin G solution, BHI agar, overnight at 37° C., Lb. sakei 2515): 1 mm
- Bacteriocin activity (in words) ([12]; Pediococcus cerevisiae): especially effective
- Radius of the inhibition halos ([12]; well test, 50 microliters of sakacin G solution, BHI agar, overnight at 37° C., P. cerevisiae IP 5492): 1 mm
- Bacteriocin activity (in words) ([13]; Enterococcus faecium): inactive; also recorded: not against Enterococcus faecium
- Radius of the inhibition halos ([13]; well test, 50 microliters of sakacin G solution, BHI agar, overnight at 37° C., E. faecium ENSAIA 631): 0 mm
- Radius of the inhibition halos [14]: 1 mm
- Radius of the inhibition halos [15]: 2 mm
- Bacteriocin activity (in words) ([16]; Enterococcus durans): especially effective; also recorded: active
- Radius of the inhibition halos ([16]; well test, 50 microliters of sakacin G solution, BHI agar, overnight at 37° C., E. durans ENSAIA 630): 2 mm
- Activity of the purified HPLC fraction (in words) ([17]; HPLC fraction, peak at 23 minutes, Listeria ivanovii BUG 496): active
- Radius of the inhibition halos ([17]; well test, 50 microliters of sakacin G solution, BHI agar, overnight at 37° C., L. ivanovi BUG 496): 6 mm
- Bacteriocin activity (in words) [18]: especially effective; also recorded: active
- Bacteriocin activity (in words) [19]: especially effective; also recorded: active
